The target in one data set is T1, human mu-opioid receptor (Homo sapiens, UniProt P35372).
T1 construct: expressed in transfected cells; host or cells: HEK-293 (HEK-MOR), kept under G418
Kind of data set: cell-based. The data set is classed as cell-based. The protocol:
(§1) Cells (72,000 per well) were plated in 100 μl/well of DMEM in 96-well solid-bottom white plates (GIBCO) and 50 μl/well of drug in HBSS in the presence of forskolin and 3-isobutyl-1-methylxanthine at final concentrations of 1 μM and 500 μM, respectively. After 30 min of incubation at room temperature, the concentration of cyclic adenosine monophosphate was determined using a LANCE Ultra cAMP Assay kit (PerkinElmer).
As MOR belongs to the GPCR family, activation of MOR leads to a decrease in intracellular cAMP level.

A further data set deals with T2, human NOP receptor (Homo sapiens, UniProt P41146).
T2 construct: expressed in transfected cells; host or cells: CHO-K1 (CHO-K1-NOP)
T2 sequence (P41146 whole entry): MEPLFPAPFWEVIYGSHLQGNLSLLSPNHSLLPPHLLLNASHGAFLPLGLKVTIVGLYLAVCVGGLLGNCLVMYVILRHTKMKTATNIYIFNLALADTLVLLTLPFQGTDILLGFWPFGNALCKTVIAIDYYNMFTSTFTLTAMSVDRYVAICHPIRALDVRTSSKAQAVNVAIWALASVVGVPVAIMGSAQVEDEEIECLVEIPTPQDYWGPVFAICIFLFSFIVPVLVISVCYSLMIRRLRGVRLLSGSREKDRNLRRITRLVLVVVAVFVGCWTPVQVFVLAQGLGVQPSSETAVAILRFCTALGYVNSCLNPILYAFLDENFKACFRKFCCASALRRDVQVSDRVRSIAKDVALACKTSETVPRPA
Kind of data set: cAMP assay in CHO-K1 cells expressing human NOP (CHO-K1-NOP). The data set is classed as cell-based. The note with it: read-out: EC50 in decreasing the cAMP level.
Text: In an exemplary in vitro assay for identifying NOP agonists, cells are engineered to overexpress NOP and are designed to detect changes in intracellular cAMP levels in response to agonist stimulation of the receptor. The enzyme donor-cAMP complex complements with the acceptor and forms an active enzyme. The active enzyme subsequently hydrolyzes a substrate to produce a chemiluminescent signal that is directly proportional to the amount of cAMP in the cells. These cells have thus been modified to work in an agonist mode.
as §1
It was measured using the PathHunter enzyme complementation assay in CHO-K1 cells expressing human NOP (CHO-K1-NOP).

Data set [1] concerns mice. Description: Tolerance and cross-tolerance, tail-flick test after 5 days twice-daily treatment. The data set is classed as in vivo, mouse. The note with it: day 6, equianalgesic dose. Background: Hot-plate and tail-flick tests time the reaction to a heat stimulus.
Data set [2] is described as follows: Charcoal meal test (gastrointestinal transit). Conditions: B6, mouse, in vivo, sc. The protocol: (§2) B6 mice were fasted for at least 16 h before the study with free access to water. In a charcoal meal test, various doses of drugs were administered to the mice 30 min prior to the administration of an aqueous activated charcoal suspension (10% activated charcoal+5% gum Arabic; 0.3 mL). After 30 min, the mice were euthanized by intraperitoneal administration of a ketamine/xylazine cocktail (Sigma) followed by cervical dislocation and the total length of migration of the charcoal meal was measured from the pylorus to the ileocecal junction of the small intestine. The length of the intestine from pylorus to the caecum and the distance traveled by the charcoal were measured. The migration index was expressed as percentage of the distance traveled by the peristaltic charcoal meal relative to the total length of the small intestine, calculated according to the following formula. % of Gastrointestinal transit=Distance Travelled by Charcoal Meal/Full Length of the Small Intestine×100%
(§3) Gastrointestinal propulsion was calculated as the percentage of the distance travelled by the charcoal meal relative to the total length of the small intestine, to control for individual variations. The percentage inhibition relative to the control was also calculated as: % Gastrointestinal Inhibition (GI)=(Control group−Drug-treated group)/Control group×100% […]

The next data set concerns B6 mice. Kind of data set: Charcoal meal test (gastrointestinal transit). The note with it: equianalgesic doses. The protocol:
as §2, §3

For another data set, the target named is MOR (Homo sapiens, UniProt P35372). The data set is classed as cell-based. Also on record: host or cells: CHO-K1 (CHO-K1-MOR).
Chain of MOR (P35372 whole entry): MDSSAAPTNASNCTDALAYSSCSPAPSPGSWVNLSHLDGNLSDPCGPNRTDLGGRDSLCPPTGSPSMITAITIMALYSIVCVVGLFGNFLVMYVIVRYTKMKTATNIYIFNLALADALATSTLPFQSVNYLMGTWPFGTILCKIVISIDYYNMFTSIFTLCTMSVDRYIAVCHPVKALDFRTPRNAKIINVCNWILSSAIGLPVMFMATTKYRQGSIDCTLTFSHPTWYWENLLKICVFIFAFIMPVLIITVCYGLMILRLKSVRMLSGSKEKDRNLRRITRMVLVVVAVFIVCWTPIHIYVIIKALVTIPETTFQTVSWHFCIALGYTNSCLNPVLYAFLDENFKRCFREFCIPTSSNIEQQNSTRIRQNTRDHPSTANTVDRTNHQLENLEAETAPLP
Data set [3] deals with mice. Description: Conditioned place preference (CPP) test, reinstatement of morphine CPP. The note with it: challenge on reinstatement day (Day 21).

Results on one compound are retold here after patent US10597378B2 (priority 2017, dated 2020).

Structures are written as SMILES.

What is called EC50 is the midpoint of the concentration-response curve. The term ED50 denotes the dose at which the effect has come halfway, by size or by number of responders. A higher ED50 goes with weaker potency.

T1 sequence (P35372 whole entry): as above

As to `CN1CCc2ccccc2C1CNC(=O)c1ccc(Cl)c(Cl)c1` (centres unmarked) [Compound 67, 3,4-Dichloro-N-[(2-methyl-1,2,3,4-tetrahydro-1-isoquinolinyl)methyl]benzamide], on human mu-opioid receptor, a half-maximal effect (EC50) was put at 0.63 nM and the cAMP production entry is “significantly decreased cAMP production”. Besides, the EC50 at human NOP receptor stood at 2.2 nM. For the same compound, in the data set with mice [1], the “antinociceptive effects on challenge in morphine-tolerant mice” value was “significant increase in antinociceptive effects”. The compound further came in with an ED50 at 60 min in data set [2] of 1.6 mg/kg. Besides, the gastrointestinal dysfunction result with B6 mice is reported as “less gastrointestinal dysfunction than morphine”. In addition, the MOR internalization entry at MOR was “approximately two-fold that of the maximal responses of morphine”. The “reinstatement of morphine CPP” value with mice [3] was “not Compound 67”.
